{"source": "paper PMC5218480", "about": "(PLoS ONE, 2017)", "tested_on": "MV-4-11 cells", "assay": "Gene expression microarray analysis (Affymetrix PrimeView) and GSEA", "format": "cell-based, human", "design": "RFU PODN (11730768_x_at) / Fold change /veh PODN (11730768_x_at) / RFU LINC00158 (11744669_a_at) / Fold change /veh LINC00158 (11744669_a_at) / RFU DUSP10 (11751237_a_at) / Fold change /veh DUSP10 (11751237_a_at) / RFU ID3 (11757404_x_at) / Fold change /veh ID3 (11757404_x_at) / RFU PLEKHG5 (11737974_s_at) / Fold change /veh PLEKHG5 (11737974_s_at) / RFU LRRC4B (11730491_at) / Fold change /veh LRRC4B (11730491_at) / RFU GIMAP4 (11747438_a_at) / Fold change /veh GIMAP4 (11747438_a_at) / RFU KRT8 (11758183_x_at) / Fold change /veh KRT8 (11758183_x_at) / RFU CNN1 (11734310_a_at) / Fold change /veh CNN1 (11734310_a_at) / RFU VPS37D (11726825_at) / Fold change /veh VPS37D (11726825_at) / RFU C10orf10 (11716522_x_at) / Fold change /veh C10orf10 (11716522_x_at) / RFU KIR2DL2 /// KIR2DL4 /// KIR2DL5A /// KIR2DL5B /// KIR2DS1 /// KIR2DS2 /// KIR2DS3 /// KIR2DS4 /// KIR3DL3 /// KIR3DL3 /// KIR3DS1 (11738374_at) / Fold change /veh KIR2DL2 /// KIR2DL4 /// KIR2DL5A /// KIR2DL5B /// KIR2DS1 /// KIR2DS2 /// KIR2DS3 /// KIR2DS4 /// KIR3DL3 /// KIR3DL3 /// KIR3DS1 (11738374_at) / RFU C1QL1 (11718748_at) / Fold change /veh C1QL1 (11718748_at) / RFU TMPRSS4 (11747572_a_at) / Fold change /veh TMPRSS4 (11747572_a_at) / RFU HAMP (11756126_x_at) / Fold change /veh HAMP (11756126_x_at) / RFU RNFT2 (11725882_a_at) / Fold change /veh RNFT2 (11725882_a_at) / RFU NR4A2 (11747474_a_at) / Fold change /veh NR4A2 (11747474_a_at) / RFU ABCC12 (11746883_a_at) / Fold change /veh ABCC12 (11746883_a_at) / RFU TMEM136 (11760407_x_at) / Fold change /veh TMEM136 (11760407_x_at) / RFU CLDN22 /// WWC2 (11732394_at) / Fold change /veh CLDN22 /// WWC2 (11732394_at) / RFU HLA-DPB1 (11760878_x_at) / Fold change /veh HLA-DPB1 (11760878_x_at) / RFU SPINT1 (11716480_a_at) / Fold change /veh SPINT1 (11716480_a_at) / RFU GAP43 (11754022_s_at) / Fold change /veh GAP43 (11754022_s_at) / RFU A4GNT (11735810_at) / Fold change /veh A4GNT (11735810_at) / RFU PRB3 (11715151_x_at) / Fold change /veh PRB3 (11715151_x_at) / RFU TUBB4B (11761932_at) / Fold change /veh TUBB4B (11761932_at) / RFU CAPN14 (11732068_a_at) / Fold change /veh CAPN14 (11732068_a_at) / RFU TMCC2 (11721928_a_at) / Fold change /veh TMCC2 (11721928_a_at) / RFU IRGQ (11745062_a_at) / Fold change /veh IRGQ (11745062_a_at) / RFU FAM174B (11720279_a_at) / Fold change /veh FAM174B (11720279_a_at) / RFU TMPRSS4 (11748680_a_at) / Fold change /veh TMPRSS4 (11748680_a_at) / RFU FAM212B (11763350_a_at) / Fold change /veh FAM212B (11763350_a_at) / RFU PLEKHG5 (11743358_a_at) / Fold change /veh PLEKHG5 (11743358_a_at) / RFU ZSCAN30 (11745921_a_at) / Fold change /veh ZSCAN30 (11745921_a_at) / RFU CMKLR1 (11741424_a_at) / Fold change /veh CMKLR1 (11741424_a_at) / RFU LOC101060620 /// MAPK8IP1 (11723275_at) / Fold change /veh LOC101060620 /// MAPK8IP1 (11723275_at) / RFU SPTSSB (11747773_x_at) / Fold change /veh SPTSSB (11747773_x_at) / RFU PRSS12 (11739890_at) / Fold change /veh PRSS12 (11739890_at) / RFU BIN1 (11741810_x_at) / Fold change /veh BIN1 (11741810_x_at) / RFU WNT11 (11732464_a_at) / Fold change /veh WNT11 (11732464_a_at) / RFU C10orf10 (11716521_a_at) / Fold change /veh C10orf10 (11716521_a_at) / RFU C5orf56 (11738089_at) / Fold change /veh C5orf56 (11738089_at) / RFU CYB561 (11721691_x_at) / Fold change /veh CYB561 (11721691_x_at) / RFU ANKRD19P (11752326_a_at) / Fold change /veh ANKRD19P (11752326_a_at) / RFU OR2T12 /// OR2T33 /// OR2T8 (11738714_s_at) / Fold change /veh OR2T12 /// OR2T33 /// OR2T8 (11738714_s_at) / RFU VCAN (11748164_a_at) / Fold change /veh VCAN (11748164_a_at) / RFU JSRP1 (11732532_at) / Fold change /veh JSRP1 (11732532_at) / RFU KRTAP10-11 (11738290_x_at) / Fold change /veh KRTAP10-11 (11738290_x_at) / RFU MYO3A (11730013_a_at) / Fold change /veh MYO3A (11730013_a_at) / RFU EBF3 (11725865_a_at) / Fold change /veh EBF3 (11725865_a_at) / RFU CAMK2N1 (11719241_x_at) / Fold change /veh CAMK2N1 (11719241_x_at) / RFU C5orf56 (11738088_a_at) / Fold change /veh C5orf56 (11738088_a_at) / RFU OLFML3 (11715873_a_at) / Fold change /veh OLFML3 (11715873_a_at) / RFU LOC100653217 /// NTM (11731650_a_at) / Fold change /veh LOC100653217 /// NTM (11731650_a_at) / RFU MAPK11 (11762145_a_at) / Fold change /veh MAPK11 (11762145_a_at) / RFU FIZ1 (11724087_x_at) / Fold change /veh FIZ1 (11724087_x_at) / RFU OASL (11726364_x_at) / Fold change /veh OASL (11726364_x_at) / RFU SOX15 (11748057_x_at) / Fold change /veh SOX15 (11748057_x_at) / RFU CD79A (11719716_a_at) / Fold change /veh CD79A (11719716_a_at) / RFU HIST1H1D (11736915_at) / Fold change /veh HIST1H1D (11736915_at) / RFU CASKIN2 (11723855_a_at) / Fold change /veh CASKIN2 (11723855_a_at) / RFU LOC730098 (11760151_x_at) / Fold change /veh LOC730098 (11760151_x_at) / RFU OR4N2 (11742367_at) / Fold change /veh OR4N2 (11742367_at) / RFU PRRT2 (11749266_a_at) / Fold change /veh PRRT2 (11749266_a_at) / RFU SNX32 (11753110_a_at) / Fold change /veh SNX32 (11753110_a_at) / RFU CDHR5 (11726645_a_at) / Fold change /veh CDHR5 (11726645_a_at) / RFU RCAN1 (11760418_a_at) / Fold change /veh RCAN1 (11760418_a_at) / RFU FAM167A (11723789_a_at) / Fold change /veh FAM167A (11723789_a_at) / RFU FAM26E (11764081_at) / Fold change /veh FAM26E (11764081_at) / RFU ISYNA1 (11749810_s_at) / Fold change /veh ISYNA1 (11749810_s_at) / RFU ACY1 (11761880_at) / Fold change /veh ACY1 (11761880_at) / RFU 11764098_at / Fold change /veh 11764098_at / RFU SAMD14 (11745864_x_at) / Fold change /veh SAMD14 (11745864_x_at) / RFU NPB (11741838_a_at) / Fold change /veh NPB (11741838_a_at) / RFU TMPRSS6 (11731388_a_at) / Fold change /veh TMPRSS6 (11731388_a_at) / RFU KRTAP10-2 (11738614_at) / Fold change /veh KRTAP10-2 (11738614_at) / RFU ARHGAP8 /// PRR5-ARHGAP8 (11727945_x_at) / Fold change /veh ARHGAP8 /// PRR5-ARHGAP8 (11727945_x_at) / RFU KRTAP5-7 /// NADSYN1 (11734609_at) / Fold change /veh KRTAP5-7 /// NADSYN1 (11734609_at) / RFU RASL12 (11751679_a_at) / Fold change /veh RASL12 (11751679_a_at) / RFU CDKN2B (11736163_a_at) / Fold change /veh CDKN2B (11736163_a_at) / RFU PRF1 (11729649_at) / Fold change /veh PRF1 (11729649_at) / RFU, ZNF638 /// ZNF638-IT1 / Fold change vs veh, ZNF638 /// ZNF638-IT1 / RFU, PANK3 / Fold change vs veh, PANK3 / RFU, SH3YL1 / Fold change vs veh, SH3YL1 / RFU, ZEB2 / Fold change vs veh, ZEB2 / RFU, NRIP1 / Fold change vs veh, NRIP1 / RFU, PTTG1IP / Fold change vs veh, PTTG1IP / RFU, CAPN2 / Fold change vs veh, CAPN2 / RFU, MED14 / Fold change vs veh, MED14 / RFU, SNORA58 / Fold change vs veh, SNORA58 / RFU, C1orf63 / Fold change vs veh, C1orf63 / RFU, LRRFIP1 / Fold change vs veh, LRRFIP1 / RFU, NDUFAF7 / Fold change vs veh, NDUFAF7 / RFU, SLC12A2 / Fold change vs veh, SLC12A2 / RFU, IBTK / Fold change vs veh, IBTK / RFU, ESF1 / Fold change vs veh, ESF1 / Fold change vs veh, TMEM50B / RFU, TAOK1 / Fold change vs veh, TAOK1 / RFU, ACBD3 / Fold change vs veh, ACBD3 / RFU, TMA16 / Fold change vs veh, TMA16 / RFU, RWDD3 / Fold change vs veh, RWDD3 / RFU, BCAT1 / Fold change vs veh, BCAT1 / RFU, EDEM3 / Fold change vs veh, EDEM3 / RFU, TMEM33 / Fold change vs veh, TMEM33 / RFU, WDR75 / Fold change vs veh, WDR75 / RFU, AHCTF1 / Fold change vs veh, AHCTF1 / RFU, TFRC / Fold change vs veh, TFRC / RFU, ZDHHC17 / Fold change vs veh, ZDHHC17 / RFU, NOM1 / Fold change vs veh, NOM1 / RFU, ARL8B / Fold change vs veh, ARL8B / RFU, ZBTB11 / Fold change vs veh, ZBTB11 / RFU, TAMM41 / Fold change vs veh, TAMM41 / RFU, KIAA1704 /// LOC100996395 / Fold change vs veh, KIAA1704 /// LOC100996395 / RFU, ING1 / Fold change vs veh, ING1 / RFU, TRMT61B / Fold change vs veh, TRMT61B / RFU, FUBP3 / Fold change vs veh, FUBP3 / RFU, TP53 / Fold change vs veh, TP53 / RFU, TNKS2 / Fold change vs veh, TNKS2 / RFU, ZFP14 / Fold change vs veh, ZFP14 / RFU, ACTR2 / Fold change vs veh, ACTR2 / RFU, PPP3R1 / Fold change vs veh, PPP3R1 / RFU, PIK3R1 / Fold change vs veh, PIK3R1 / RFU, HNRNPA1 / Fold change vs veh, HNRNPA1 / RFU, RNF170 / Fold change vs veh, RNF170 / RFU, ZNF28 / Fold change vs veh, ZNF28 / RFU, RNGTT / Fold change vs veh, RNGTT / RFU, OGT / Fold change vs veh, OGT / RFU, BRD1 / Fold change vs veh, BRD1 / RFU, MARS / Fold change vs veh, MARS / RFU, ZNF655 / Fold change vs veh, ZNF655 / RFU, FAHD1 / Fold change vs veh, FAHD1 / RFU, BDP1 / Fold change vs veh, BDP1 / RFU, LRRCC1 / Fold change vs veh, LRRCC1 / RFU, ARID1A / Fold change vs veh, ARID1A / RFU, ZNF146 / Fold change vs veh, ZNF146 / RFU, ZNF330 / Fold change vs veh, ZNF330 / RFU, GPN3 / Fold change vs veh, GPN3 / RFU, C9orf123 / Fold change vs veh, C9orf123 / RFU, N4BP2L2 / Fold change vs veh, N4BP2L2 / RFU, ARFIP1 / Fold change vs veh, ARFIP1 / RFU, FAM179B / Fold change vs veh, FAM179B / RFU, BCL10 / Fold change vs veh, BCL10 / RFU, UHRF1BP1L / Fold change vs veh, UHRF1BP1L / RFU, BET1 / Fold change vs veh, BET1 / RFU, CNOT2 / Fold change vs veh, CNOT2 / RFU, ZNF268 / Fold change vs veh, ZNF268 / Fold change vs veh, ZNF507 / RFU, DGCR2 / Fold change vs veh, DGCR2 / RFU, WDSUB1 / Fold change vs veh, WDSUB1 / Fold change vs veh, HSP90B1 /// MIR3652 / RFU, ADSS / Fold change vs veh, ADSS / RFU, GK / Fold change vs veh, GK / RFU, ZNF148 / Fold change vs veh, ZNF148 / RFU, TAF9 / Fold change vs veh, TAF9 / RFU, SLC1A5 / Fold change vs veh, SLC1A5 / RFU, SLMO2 / Fold change vs veh, SLMO2 / RFU, ABCC4 / Fold change vs veh, ABCC4 / RFU, LOC101060439 /// RAP1B / Fold change vs veh, LOC101060439 /// RAP1B / RFU, RFX7 / Fold change vs veh, RFX7 / RFU, GTPBP10 / Fold change vs veh, GTPBP10 / RFU, CNEP1R1 / Fold change vs veh, CNEP1R1 / RFU, BIVM-ERCC5 /// ERCC5 / Fold change vs veh, BIVM-ERCC5 /// ERCC5 / RFU, ILF3 / Fold change vs veh, ILF3 / RFU 11762660_at / Fold change /veh 11762660_at / RFU VCAN (11757783_s_at) / Fold change /veh VCAN (11757783_s_at) / RFU DDX43 (11728927_at) / Fold change /veh DDX43 (11728927_at) / RFU KRT8 (11758188_x_at) / Fold change /veh KRT8 (11758188_x_at) / RFU NKD1 (11759106_at) / Fold change /veh NKD1 (11759106_at) / RFU SRD5A1 (11742802_a_at) / Fold change /veh SRD5A1 (11742802_a_at) / RFU TPSAB1 /// TPSB2 (11721975_s_at) / Fold change /veh TPSAB1 /// TPSB2 (11721975_s_at) / RFU GSTM3 (11746129_a_at) / Fold change /veh GSTM3 (11746129_a_at) / RFU IL23R (11737362_x_at) / Fold change /veh IL23R (11737362_x_at) / RFU TMEM51 (11727254_a_at) / Fold change /veh TMEM51 (11727254_a_at) / RFU PIWIL2 (11732686_x_at) / Fold change /veh PIWIL2 (11732686_x_at) / RFU ORM1 (11744905_x_at) / Fold change /veh ORM1 (11744905_x_at) / RFU CCDC152 (11743942_at) / Fold change /veh CCDC152 (11743942_at) / RFU ECM1 (11717891_a_at) / Fold change /veh ECM1 (11717891_a_at) / RFU IL23R (11748794_a_at) / Fold change /veh IL23R (11748794_a_at) / RFU TNFAIP8L3 (11732012_x_at) / Fold change /veh TNFAIP8L3 (11732012_x_at) / RFU MBOAT4 (11741988_at) / Fold change /veh MBOAT4 (11741988_at) / RFU 11764193_at / Fold change /veh 11764193_at / RFU TMEM53 (11763286_at) / Fold change /veh TMEM53 (11763286_at) / RFU MAGEB2 (11727129_at) / Fold change /veh MAGEB2 (11727129_at) / RFU TMEM200A (11744735_a_at) / Fold change /veh TMEM200A (11744735_a_at) / RFU CCDC152 (11751479_a_at) / Fold change /veh CCDC152 (11751479_a_at) / RFU FAM211A (11726209_a_at) / Fold change /veh FAM211A (11726209_a_at) / RFU RGS16 (11746705_a_at) / Fold change /veh RGS16 (11746705_a_at) / RFU VCAN (11755009_s_at) / Fold change /veh VCAN (11755009_s_at) / RFU RHOB (11743442_s_at) / Fold change /veh RHOB (11743442_s_at) / RFU RGS16 (11720943_a_at) / Fold change /veh RGS16 (11720943_a_at) / RFU RGS16 (11720944_at) / Fold change /veh RGS16 (11720944_at) / RFU, VPS4B / Fold change vs veh, VPS4B / RFU, CREB1 / Fold change vs veh, CREB1 / RFU, DNAJC13 / Fold change vs veh, DNAJC13 / RFU, GNAQ / Fold change vs veh, GNAQ / RFU, CDK5R1 / Fold change vs veh, CDK5R1 / RFU, ZRANB3 / Fold change vs veh, ZRANB3 / RFU, CUL4A / Fold change vs veh, CUL4A / RFU, CCNY / Fold change vs veh, CCNY / RFU, UFL1 / Fold change vs veh, UFL1 / RFU, COG3 / Fold change vs veh, COG3 / RFU, DIAPH2 / Fold change vs veh, DIAPH2 / RFU, SKA2 / Fold change vs veh, SKA2 / RFU, AFF3 / Fold change vs veh, AFF3 / RFU, LMF1 / Fold change vs veh, LMF1 / RFU, IPO11 / Fold change vs veh, IPO11 / RFU, DFFB / Fold change vs veh, DFFB / RFU, FOXP1 / Fold change vs veh, FOXP1 / RFU, CARD8 / Fold change vs veh, CARD8 / RFU, STRN3 / Fold change vs veh, STRN3 / RFU, ADK / Fold change vs veh, ADK / RFU, RASSF2 / Fold change vs veh, RASSF2 / RFU, WIPF1 / Fold change vs veh, WIPF1 / RFU, LARP1B / Fold change vs veh, LARP1B / RFU, RASA1 / Fold change vs veh, RASA1 / RFU, RB1 / Fold change vs veh, RB1 / RFU, PPFIA1 / Fold change vs veh, PPFIA1 / RFU, MAT2A / Fold change vs veh, MAT2A / RFU, CCT5 / Fold change vs veh, CCT5 / RFU, WDR92 / Fold change vs veh, WDR92 / RFU, CUX1 / Fold change vs veh, CUX1 / RFU, TTC7A / Fold change vs veh, TTC7A / RFU, TMEM135 / Fold change vs veh, TMEM135 / RFU, DEPTOR / Fold change vs veh, DEPTOR / RFU, CPM / Fold change vs veh, CPM / RFU, DNAJB6 / Fold change vs veh, DNAJB6 / RFU, CACNA2D3 / Fold change vs veh, CACNA2D3 / RFU, DTX4 / Fold change vs veh, DTX4 / RFU, TFCP2 / Fold change vs veh, TFCP2 / RFU, GMCL1 /// GMCL1P1 / Fold change vs veh, GMCL1 /// GMCL1P1 / RFU, AEBP2 / Fold change vs veh, AEBP2 / RFU, SNHG1 /// SNORD22 /// SNORD25 /// SNORD26 /// SNORD27 /// SNORD28 /// SNORD29 /// SNORD31 / Fold change vs veh, SNHG1 /// SNORD22 /// SNORD25 /// SNORD26 /// SNORD27 /// SNORD28 /// SNORD29 /// SNORD31 / Fold change (Aza/veh), C12orf56 (ProbeSet 11735607_a_at) / Fold change (ACY-1035/veh), C12orf56 (ProbeSet 11735607_a_at) / Fold change (Aza/veh), FGFR1OP (ProbeSet 11751329_s_at) / Fold change (ACY-1035/veh), FGFR1OP (ProbeSet 11751329_s_at) / Fold change (Aza/veh), VPS36 (ProbeSet 11739960_a_at) / Fold change (ACY-1035/veh), VPS36 (ProbeSet 11739960_a_at) / RFU SYPL1 (11715823_x_at) / Fold change /veh SYPL1 (11715823_x_at) / RFU IGFBP7 (11715501_s_at) / Fold change /veh IGFBP7 (11715501_s_at) / RFU REEP3 (11722064_at) / Fold change /veh REEP3 (11722064_at) / RFU IGLL1 (11728026_x_at) / Fold change /veh IGLL1 (11728026_x_at): dose or concentration left out as unconfirmed", "details": "ProbeSet 11730252_s_at; LIST B", "data": [{"smiles": "Nc1ccc(-c2cccs2)cc1NC(=O)c1ccc2c(c1)cc(C1CC1)n2CCN1CCOCC1", "note": "[ACY-1035]", "values": [{"measurement": "RFU, AHCTF1", "value": 224.50, "unit": "RFU"}]}]}
